Earlier results, collected in US20190022229A1, “CANNABINOID/TERPENE ENRICHED CAPRYLIC ACID” (priority 2017, published 2019).

Conditions: over an eight-hour period; compared with capric acid (C10) alone; from Vandenberghe et al. 2016

## CCCCCCCC(=O)O [caprylic acid]
  increase in total plasma ketone levels relative to capric acid (C10) alone: approximately three times more
